The test system of series [1] is capsaicin-treated corneas. The class given is in vivo. How it is done:
Capsaicin-treated corneas from adult rabbits were used to determine the effects of topically applied defensins on corneal re-epithelialization. Capsaicin depletes neuropeptides which have an effect on wound healing (data not shown). The rabbits received 0.4 ml of lidocaine diluted in 2.6 ml of sterile saline delivered subcutaneously between the cranial aspect of the interscapular space. After 10 minutes, 50 mg/kg of capsaicin (100 mg/ml) was delivered through a 11/2 inch 25 gauge needle. Repeat injections of capsaicin was given once a day for four additional days. Three weeks from the last injection bilateral corneal defects were created as described below and the eyes treated topically with test solutions. The cornea was treated with two drops of test solution after creation of the epithelial defect. Upon completion of surgery, the rabbit was returned to its cage onto a warm heating pad. Sequential corneal photographs were taken after installation of fluoroscein and the rate of epithelial wound healing determined.
The effects of topically applied HNP-1 on the epithelial wound healing of neuropeptide depleted rabbit corneas was investigated. Corneas of rabbits treated systemically with capsaicin have impaired epithelial healing. In this model, capsaicin (50 mg/kg) was injected subcutaneously for 5 consecutive days into New Zealand white rabbits. Lidocaine was delivered subcutaneously into the capsaicin injection site 10 minutes prior to the first injection. Three weeks after the injections, the animals were anesthetized (ketamine/xylazine), topical anesthetic applied to the cornea, and the epithelium debrided circumferentially to the limbal margin of clear cornea. Absolute alcohol on microcellulose sponges and a dull #15 Bard Parker blade were used to remove the epithelium. Care was taken that no alcohol ran over the clear corneal edge to damage the limbal epithelium. The corneas were stained with fluorescein and photographed twice daily to monitor re-epithelialization. […]

Series [2] relates to SIRC rabbit corneal epithelial cells. Kind of series: In vitro cell growth assay (3H-thymidine incorporation), serum free. The class given is cell-based. As for the experimental part:
(§1) Cell growth assays were performed as previously described in Reid et al., (1987), J. Biol. Chem. 262:229-233. Briefly, cells were grown to confluence in 96-well plates in media plus serum and arrested in G0/G1 by either serum starvation for 2-days (epithelial cells) or 8-10 day serum depletion followed by serum starvation for 1-day (fibroblasts). At this point the media was removed and new media with the desired factors was added. Approximately 16 hours later ^3 -thymidine was added and 20 to 28 hours later the cells were washed, lysed and the amount of ^3 H-thymidine incorporated into DNA was measured. In some cases, actual cell counts were performed.
(§2) The growth stimulatory properties of human defensins HNP-1, HNP-2, HNP-3 and rabbit defensins NP-1 and NP-5 in a serum free growth assay system were tested. SIRC rabbit corneal epithelial cells, Nakano mouse lens epithelial cells, and NIH 3T3 fibroblasts were utilized in these studies.
A general note: Uptake of a labelled nucleoside into DNA is a usual measure of proliferation.

Another series has as its system NIH 3T3 fibroblasts. The description is as above. The class given is cell-based. As for the experimental part: as §1, §2
The test system of series [3] is panel of organisms in stationary growth phase. The following applies: cited from earlier work.
In series [4] the test system is Nakano mouse lens epithelial cells. Kind of series: In vitro cell growth assay (3H-thymidine incorporation, cell counts), serum free. The class given is cell-based. As for the experimental part:
as §1, §2

Turning to “HNP-1: human neutrophil defensin peptide isolated from PMN; sequence in Table 1”, the “time to re-epithelialization of treated eye” value in series [1] (100 μg/ml topical 4 times a day, control eye healed at 6.5 days) turned out to be 5.5 days. For the same substance, the “re-epithelialization of treated versus fellow control eye” value in series [1] (100 μg/ml topical, one rabbit) is reported as “both corneas re-epithelialized simultaneously”. In addition, the “effect on the cornea or conjunctiva (tolerability)” value in series [1] (topical, 4 times a day, 40 or 100 μg/ml in sterile water, four rabbits) is recorded as “no deleterious effect on the cornea or conjunctiva”. The “stimulatory properties (DNA synthesis)” value is given as “stimulatory” in series [2] (corneal epithelial cells (FIG. 9)); “stimulatory” with NIH 3T3 fibroblasts (3T3 fibroblasts, presence and absence of insulin (FIG. 10)). Besides, in series [2] (corneal epithelial cells, higher concentrations), the “effect at higher concentrations” value is recorded as “suppression observed at higher concentrations”. Moreover, the “suppression at higher concentrations” value in the series with NIH 3T3 fibroblasts (3T3 fibroblast cells, higher concentrations) was “not observed”. The “relative antimicrobial potency among defensins” value in series [3] was “most potent antimicrobial properties”. For the same substance, the “growth promoting response with bovine serum albumin” value in series [4] (5 mg/ml BSA added at varying times after stimulation (FIGS. 7 and 8), preliminary) was “response curve is shifted to the right and that the plateau phase is extended”.

On to “HNP-3: human neutrophil defensin peptide; sequence in Table 1”, for which, in series [4] (cell counts (FIG. 6)), the actual cell number result is “increase in actual cell number”. Also, the “stimulatory effect on cell number compared with insulin and EGF” value in series [4] (insulin and EGF at concentrations which elicit maximal response (FIG. 6)) was “surpassed that of insulin and EGF”.

(Values after patent US5242902A, “Defensin peptide compositions and methods for their use” (The Regents of the University of California, priority 1989, dated 1993).)
